Here are results for 50 compounds from patent publication US20090239841A1, “Diaryl Ureas as CB1 Antagonists” (priority 2004, published 2009).

Structures are written as SMILES.

T1 sequence (P21554 whole entry): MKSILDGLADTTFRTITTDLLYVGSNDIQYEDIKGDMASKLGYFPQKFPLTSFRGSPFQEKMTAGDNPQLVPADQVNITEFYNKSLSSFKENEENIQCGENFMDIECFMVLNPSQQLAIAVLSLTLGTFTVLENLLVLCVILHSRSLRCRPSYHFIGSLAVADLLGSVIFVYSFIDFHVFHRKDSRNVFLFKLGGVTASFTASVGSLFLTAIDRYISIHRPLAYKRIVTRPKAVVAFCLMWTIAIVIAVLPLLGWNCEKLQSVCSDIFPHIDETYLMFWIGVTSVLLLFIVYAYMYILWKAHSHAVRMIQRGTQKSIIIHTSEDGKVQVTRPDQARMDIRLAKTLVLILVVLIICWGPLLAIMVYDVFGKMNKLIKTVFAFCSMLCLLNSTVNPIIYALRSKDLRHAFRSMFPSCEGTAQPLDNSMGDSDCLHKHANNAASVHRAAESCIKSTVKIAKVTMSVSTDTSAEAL

The assay addresses T1, hCB1 (Homo sapiens, UniProt P21554).
T1 construct: made in house; host or cells: Sf9 insect cells (baculovirus), P2 membranes
Put plainly: Agonist-induced GTP binding (GTPγ35S) assay at CB1, Example 8. It counts as biochemical. To be noted: IC50 at CB1, determined as described in Example 8; read-out: IC50. An outline of the steps:
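Membranes from Sf9 cells co-expressing hCB1 and heterotrimeric G-protein (10 μg protein) in Tris pH 7.4 buffer with 5 μM GDP. Test compounds (10^−10–10^−5 M) competed against 1 nM CP55,940 with […] GTPγ35S, 60 min at room temperature. Filter-bound radioactivity by scintillation, expressed as percent above basal.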
As for `CCOc1ccc(NC(=O)Nc2cccc(OC(F)F)c2)cc1` [Compound 555, 1-[3-(difluoromethoxy)phenyl]-3-(4-ethoxyphenyl)urea], the IC50 was < 2000 nM.

Turning to `COc1cccc(NC(=O)Nc2ccc([N+](=O)[O-])cc2)c1` [Compound 556, 1-(3-methoxyphenyl)-3-(4-nitrophenyl)urea], the IC50 was < 2000 nM.

Regarding `COc1ccc(NC(=O)Nc2ccc([N+](=O)[O-])cc2)cc1` [Compound 557, 1-(4-methoxyphenyl)-3-(4-nitrophenyl)urea], the half-inhibitory concentration (IC50) was < 2000 nM.

With `CCOc1cccc(NC(=O)Nc2ccc([N+](=O)[O-])cc2)c1` [Compound 558, 1-(3-ethoxyphenyl)-3-(4-nitrophenyl)urea], the IC50 is < 2000 nM.

Take `CCOc1ccc(NC(=O)Nc2cccc([N+](=O)[O-])c2)cc1` [Compound 559, 1-(4-ethoxyphenyl)-3-(3-nitrophenyl)urea]: the IC50 was < 2000 nM.

Take `CCOc1ccc(NC(=O)Nc2ccc([N+](=O)[O-])cc2)cc1` [Compound 560, 1-(4-ethoxyphenyl)-3-(4-nitrophenyl)urea]: the IC50 was < 2000 nM.

As for `COCc1ccc(NC(=O)Nc2ccc([N+](=O)[O-])cc2)cc1` [Compound 561, 1-[4-(methoxymethyl)phenyl]-3-(4-nitrophenyl)urea], the IC50 is < 2000 nM.

In the case of `CCCOc1ccc(NC(=O)Nc2ccc([N+](=O)[O-])cc2)cc1` [Compound 562, 1-(4-nitrophenyl)-3-(4-propoxyphenyl)urea], the IC50 was < 2000 nM.

For `CC(C)Oc1cccc(NC(=O)Nc2ccc([N+](=O)[O-])cc2)c1` [Compound 563, 1-(3-isopropoxyphenyl)-3-(4-nitrophenyl)urea], the IC50 is < 2000 nM.

In the case of `CC(C)Oc1ccc(NC(=O)Nc2ccc([N+](=O)[O-])cc2)cc1` [Compound 564, 1-(4-isopropoxyphenyl)-3-(4-nitrophenyl)urea], the IC50 is < 2000 nM.

With `O=C(Nc1cccc(OC(F)F)c1)Nc1cccc([N+](=O)[O-])c1` [Compound 565, 1-[3-(difluoromethoxy)phenyl]-3-(3-nitrophenyl)urea], the 50% inhibitory concentration (IC50) was < 2000 nM.

In the case of `O=C(Nc1ccc([N+](=O)[O-])cc1)Nc1cccc(OC(F)F)c1` [Compound 566, 1-[3-(difluoromethoxy)phenyl]-3-(4-nitrophenyl)urea], the IC50 is < 2000 nM.

In the case of `O=C(Nc1ccc(OC(F)F)cc1)Nc1cccc([N+](=O)[O-])c1` [Compound 568, 1-[4-(difluoromethoxy)phenyl]-3-(3-nitrophenyl)urea], the IC50 was < 2000 nM.

For `O=C(Nc1ccc(OC(F)F)cc1)Nc1ccc([N+](=O)[O-])cc1` [Compound 569, 1-[4-(difluoromethoxy)phenyl]-3-(4-nitrophenyl)urea], the IC50 is < 2000 nM.

Regarding `CCOc1cccc(NC(=O)Nc2ccc(C(C)C)cc2)c1` [Compound 570, 1-(3-ethoxyphenyl)-3-(4-isopropylphenyl)urea], the IC50 is < 2000 nM.

As to `COCc1cccc(NC(=O)Nc2ccc(C(C)C)cc2)c1` [Compound 571, 1-(4-isopropylphenyl)-3-[3-(methoxymethyl)phenyl]urea], the IC50 is < 2000 nM.

Turning to `COCc1ccc(NC(=O)Nc2ccc(C(C)C)cc2)cc1` [Compound 572, 1-(4-isopropylphenyl)-3-[4-(methoxymethyl)phenyl]urea], the half-maximal inhibitory concentration (IC50) is < 2000 nM.

Consider `CCCOc1ccc(NC(=O)Nc2ccc(C(C)C)cc2)cc1` [Compound 573, 1-(4-isopropylphenyl)-3-(4-propoxyphenyl)urea], for which the IC50 was < 2000 nM.

`CC(C)Oc1cccc(NC(=O)Nc2ccc(C(C)C)cc2)c1` [Compound 574, 1-(3-isopropoxyphenyl)-3-(4-isopropylphenyl)urea]: the IC50 is < 2000 nM.

For `CC(C)Oc1ccc(NC(=O)Nc2ccc(C(C)C)cc2)cc1` [Compound 575, 1-(4-isopropoxyphenyl)-3-(4-isopropylphenyl)urea], the IC50 is < 2000 nM.

Regarding `CC(C)c1ccccc1NC(=O)Nc1cccc(OC(F)F)c1` [Compound 576, 1-[3-(difluoromethoxy)phenyl]-3-(2-isopropylphenyl)urea], the IC50 is < 2000 nM.

In the case of `CC(C)c1ccc(NC(=O)Nc2cccc(OC(F)F)c2)cc1` [Compound 577, 1-[3-(difluoromethoxy)phenyl]-3-(4-isopropylphenyl)urea], the IC50 was < 2000 nM.

Regarding `CCCc1ccccc1NC(=O)Nc1cccc(OC(F)F)c1` [Compound 578, 1-[3-(difluoromethoxy)phenyl]-3-(2-propylphenyl)urea], the concentration for half-maximal inhibition (IC50) is < 2000 nM.

On to `N#CCc1ccc(NC(=O)Nc2ccc(OC(F)F)cc2)cc1` [Compound 581, 1-[4-(cyanomethyl)phenyl]-3-[4-(difluoromethoxy)phenyl]urea], for which the IC50 is < 2000 nM.

On to `N#CCOc1ccc(NC(=O)Nc2ccc(OC(F)F)cc2)cc1` [Compound 582, 1-[4-(cyanomethoxy)phenyl]-3-[4-(difluoromethoxy)phenyl]urea], for which the IC50 was < 2000 nM.

As to `CCOC(=O)c1ccc(NC(=O)Nc2ccc(OC(F)F)cc2)cc1` [Compound 583, ethyl 4-[({[4-(difluoromethoxy)phenyl]amino}carbonyl)amino]benzoate], the IC50 is < 2000 nM.

`CC(C)OC(=O)c1ccc(NC(=O)Nc2ccc(OC(F)F)cc2)cc1` [Compound 584, isopropyl 4-[({[4-(difluoromethoxy)phenyl]amino}carbonyl)amino]benzoate]: the IC50 was < 2000 nM.

In the case of `COc1cccc(NC(=O)Nc2ccc(CC#N)cc2)c1` [Compound 585, 1-[4-(cyanomethyl)phenyl]-3-(3-methoxyphenyl)urea], the IC50 was < 2000 nM.

As to `COc1ccc(NC(=O)Nc2ccc(CC#N)cc2)cc1` [Compound 586, 1-[4-(cyanomethyl)phenyl]-3-(4-methoxyphenyl)urea], the IC50 was < 2000 nM.

Take `CCOc1ccc(NC(=O)Nc2ccc(CC#N)cc2)cc1` [Compound 587, 1-[4-(cyanomethyl)phenyl]-3-(4-ethoxyphenyl)urea]: the IC50 was < 2000 nM.

For `COc1cccc(NC(=O)Nc2ccc(OCC#N)cc2)c1` [Compound 588, 1-[4-(cyanomethoxy)phenyl]-3-(3-methoxyphenyl)urea], the IC50 was < 2000 nM.

`COc1ccc(NC(=O)Nc2ccc(OCC#N)cc2)cc1` [Compound 589, 1-[4-(cyanomethoxy)phenyl]-3-(4-methoxyphenyl)urea]: the IC50 is < 2000 nM.

For `CCOc1ccc(NC(=O)Nc2ccc(OCC#N)cc2)cc1` [Compound 590, 1-[4-(cyanomethoxy)phenyl]-3-(4-ethoxyphenyl)urea], the IC50 is < 2000 nM.

With `CCC(=O)c1ccc(NC(=O)Nc2cccc(OC)c2)cc1` [Compound 591, 1-(3-methoxyphenyl)-3-(4-propionylphenyl)urea], the IC50 was < 2000 nM.

As to `CCOC(=O)c1ccc(NC(=O)Nc2cccc(OC)c2)cc1` [Compound 593, ethyl 4-({[(3-methoxyphenyl)amino]carbonyl}amino)benzoate], the IC50 is < 2000 nM.

As for `CCOC(=O)c1ccc(NC(=O)Nc2ccc(OC)cc2)cc1` [Compound 594, ethyl 4-({[(4-methoxyphenyl)amino]carbonyl}amino)benzoate], the IC50 was < 2000 nM.

For the compound `CCOC(=O)c1ccc(NC(=O)Nc2ccc(OCC)cc2)cc1` [Compound 595, ethyl 4-({[(4-ethoxyphenyl)amino]carbonyl}amino)benzoate], the IC50 is < 2000 nM.

In the case of `CCOc1ccc(NC(=O)Nc2ccc(S(C)(=O)=O)cc2)cc1` [Compound 596, 1-(4-ethoxyphenyl)-3-[4-(methylsulfonyl)phenyl]urea], the IC50 is < 2000 nM.

As for `COc1cccc(NC(=O)Nc2ccc(C(=O)OC(C)C)cc2)c1` [Compound 597, isopropyl 4-({[(3-methoxyphenyl)amino]carbonyl}amino)benzoate], the 50% inhibitory concentration (IC50) was < 2000 nM.

As to `COc1ccc(NC(=O)Nc2ccc(C(=O)OC(C)C)cc2)cc1` [Compound 598, isopropyl 4-({[(4-methoxyphenyl)amino]carbonyl}amino)benzoate], the IC50 is < 2000 nM.

Take `CCOc1ccc(NC(=O)Nc2ccc(C(=O)OC(C)C)cc2)cc1` [Compound 599, isopropyl 4-({[(4-ethoxyphenyl)amino]carbonyl}amino)benzoate]: the IC50 was < 2000 nM.

As for `N#CCOc1ccc(NC(=O)Nc2cccc([N+](=O)[O-])c2)cc1` [Compound 600, 1-[4-(cyanomethoxy)phenyl]-3-(3-nitrophenyl)urea], the IC50 was < 2000 nM.

Regarding `CCOC(=O)c1ccc(NC(=O)Nc2ccc(C(C)C)cc2)cc1` [Compound 602, ethyl 4-({[(4-isopropylphenyl)amino]carbonyl}amino)benzoate], the IC50 was < 2000 nM.

As for `CCN(CC)C(=O)c1ccccc1NC(=O)Nc1ccc(OC(F)F)cc1` [Compound 603], the IC50 is < 2000 nM.

As for `CC(C)(C)c1ccccc1NC(=O)Nc1ccc(OC(F)F)cc1` [Compound 604, 1-(2-tert-butylphenyl)-3-[4-(difluoromethoxy)phenyl]urea], the IC50 was < 2000 nM.

On to `O=C(Nc1ccc(OC(F)F)cc1)Nc1ccccc1Br` [Compound 605, 1-(2-bromophenyl)-3-[4-(difluoromethoxy)phenyl]urea], for which the IC50 is < 2000 nM.

In the case of `Cc1ccc(NC(=O)Nc2ccc(OC(F)F)cc2)cc1F` [Compound 606, 1-[4-(difluoromethoxy)phenyl]-3-(3-fluoro-4-methylphenyl)urea], the IC50 is < 2000 nM.

In the case of `Cc1ccc(NC(=O)Nc2ccc(OC(F)(F)F)cc2)cc1F` [Compound 607, 1-(3-fluoro-4-methylphenyl)-3-[4-(trifluoromethoxy)phenyl]urea], the IC50 was < 2000 nM.

Turning to `Cc1cc(NC(=O)Nc2ccc(OC(F)F)cc2)ccc1F` [Compound 608, 1-[4-(difluoromethoxy)phenyl]-3-(4-fluoro-3-methylphenyl)urea], the IC50 was < 2000 nM.

In the case of `O=C(Nc1ccc(OC(F)F)cc1)Nc1ccc(F)c(F)c1` [Compound 609, 1-[4-(difluoromethoxy)phenyl]-3-(3,4-difluorophenyl)urea], the half-inhibitory concentration (IC50) is < 2000 nM.

One may read the IC50 as the concentration that gives 50% inhibition.
